Laboratory results published in patent US11311506B2, “Controlling biofilms with cyclopropanated fatty acids” (THE UNIVERSITY OF MEMPHIS RESEARCH FOUNDATION, priority 2018, dated 2022).

How the values were obtained:
[1] = tested on: Staphylococcus aureus biofilm; test: Biofilm dispersion measurements (Staphylococcus aureus), Luciferase assay for ATP production; format: cell-based; conditions: 500 μg/mL; preformed 7-day S. aureus biofilm; FIG. 1
Experimental: Biofilm was formed using Staphylococcus aureus in a 96-well plate format. Each well of the plate was seeded with 150 μL of bacterial culture and incubated for 24 hours to allow for biofilm growth. The medium in each well was changed every 24 hours for 5 days and every 12 hours for two additional days. On day 7, 135 μL of Tryptic Soy Broth (TSB) and 15 μL of C2DA, T2DA, or 2-CP were added to yield final concentrations of each test compound ranging from 0 to 1000 μg/mL. The plate was then incubated for one hour and the turbidity of each solution was determined at 540 nm. Bacterial growths were then aspirated from all wells and the plates were washed several times with water.
(§1) The relative percentage of attached cells as compared to non-treated controls was assessed using a Luciferase assay for ATP production.

[2] = tested on: Pseudomonas aeruginosa (ATCC 27317) biofilm; test: Biofilm eradication with antibiotics, MBEC plate (Example 8, P. aeruginosa); format: cell-based; conditions: for FICI / Interpretation: P. aeruginosa eradication, antibiotic combined with 2-CP; for FICI: 4000 μg/mL used for 2-CP alone; for MEC for antibiotic (combined): combined with 2-CP
Experimental: (§2) Staphylococcus aureus (UAMS1) was grown overnight in TSB by incubation at 37° C. Pseudomonas aeruginosa (ATCC 27317) was grown overnight in a similar manner. S. aureus was diluted 1:10 in TSB and P. aeruginosa was diluted 1:50. Bacterial dilutions were added at a volume of 150 μL into each well of a 96-well MBEC′ Biofilm Inoculator plate, followed by overnight incubation to form the biofilm. The next day the medium from each well was carefully aspirated allowing the biofilm to remain both on the pegs of the top plate and the bottom of the wells. […] These plates were incubated at 37° C. for 24 hours. The next day the peg plates (top plate) were removed and added to new plates containing 150 μL of sterile TSB in each well. Plates were sonicated for 5 minutes to remove the viable bacteria attached to the peg surface and later incubated for 24 hours. Turbidity was measured by reading absorbance at 540 nm for bacterial growth in the presence of fixed concentrations of the antibiotics with varying concentrations of 2-CP and C2DA.

[3] = tested on: Staphylococcus aureus biofilm; test: Biofilm eradication with antibiotics, MBEC Biofilm Inoculator plate, turbidity at 540 nm (Example 3); format: cell-based; conditions: 24 h
Experimental: Overnight cultures of Staphylococcus aureus were prepared by inoculating 2 mL of TSB followed by incubation overnight at 37° C. The following day, 1 mL of this stock was diluted in 10 mL of TSB. A total of 150 μL of the diluted stock was seeded into each well of a 96-well MBECTM Biofilm Inoculator plate, followed by incubation overnight to allow biofilm growth. All media and planktonic bacteria were then aspirated from each well thus allowing the biofilm to remain both on the bottom of each well and on the pegs on the top of the plate. […] The plates were incubated for 24 hours at 37° C. Following incubation, the pegs were removed and added to new plates containing 150 μL of sterile TSB in each well. Plates and pegs were then sonicated for 5 minutes to remove any viable bacteria attached to the pegs, followed by incubation for 24 hours. Turbidity was determined via absorbance at 540 nm to access bacterial growth in the presence of fixed concentration of antibiotics and varying concentrations of […] and 2-CP. In this assay, the live bacteria that remained attached to the pegs grew overnight and increased turbidity.

[4] = tested on: Staphylococcus aureus (UAMS1) biofilm; test: Biofilm eradication with antibiotics, MBEC plate (Example 8, S. aureus); format: cell-based
Experimental: as §2

S. aureus (UAMS-1) = test: Synergy checkerboard assay, biofilm inhibition (S. aureus); format: cell-based; conditions: for MIC for antibiotic (combined): combined with 2-CP
Experimental: (§3) Synergy assays were performed to determine the effects of 2-CP when used in combination with various antimicrobials against gram positive S. aureus and gram negative P. aeruginosa. […] Final antibiotic concentrations varied based on their respective minimum inhibitory concentration for each organism and are given in Table 1. […] Inhibition was defined as a lack of visible growth after a 24 hr incubation period. The fractional inhibitory concentration index (FICI) was used to determine synergistic, additive, or antagonistic responses between the three antibiotics and 2-CP.

[5] = tested on: Pseudomonas aeruginosa (ATCC 27317) biofilm; test: Biofilm dispersion measurements (Pseudomonas aeruginosa), Luciferase assay for ATP production; format: cell-based; conditions: 125 or 250 μg/mL, 24 h; FIG. 7
Experimental: Biofilm was formed using Pseudomonas aeruginosa (ATCC 27317) in a 96-well plate format. Each well of the plate was seeded with 150 μL of bacterial culture and incubated for 24 hours. […] The plate was then incubated for 24 hours and the medium was aspirated and the plate washed several times.
as §1

[6] = tested on: P. aeruginosa (PA-ATCC 27317); test: Synergy checkerboard assay, biofilm inhibition (P. aeruginosa); format: cell-based; conditions: for FICI / Interpretation: antibiotic combined with 2-CP; for MIC for antibiotic (combined): combined with 2-CP
Experimental: as §3

[7] = tested on: Mouse fibroblast cells (NIH3T3); test: Cytocompatibility, CellTiter Glow cell viability; format: cell-based
Experimental: Mouse fibroblast cells (NIH3T3) were seeded (1×10^4 cells/cm^2) in 24-well plates in Dulbecco's Modified Eagle's Medium (DMEM) supplemented with 10% fetal bovine serum and 100 μg/mL Normocin for 24 hours at 37° C. and 5% CO2. Concentrations of C2DA, T2DA, and 2-CP ranging from 0 to 1000 μg/mL were added to various wells. The plate was incubated for 24 hours and cell viability was measured using CellTiter Glow.

bacterial growth = conditions: background statement; cited from earlier work
biofilm formation = conditions: background statement; cited from earlier work

CCCCCCCC1CC1C(=O)O (stereo not drawn) [2-CP, cis-2-heptylcyclopropanyl-1-carboxylic acid]
ability to disperse biofilm (percentage of dispersed cells) [1]: increased ability to disperse biofilm as compared to its unsaturated fatty acid analog, C2DA
MEC for 2-CP (alone) ([2]; P. aeruginosa biofilm eradication): >4000
biofilm eradication by the substance alone ([2]; P. aeruginosa, alone): did not eradicate biofilm at any concentration tested
MEC for 2-CP (combined) ([2]; P. aeruginosa, combined with Levofloxacin): 250
MEC for 2-CP (combined) ([2]; P. aeruginosa, combined with Tobramycin): 250
turbidity (absorbance at 540 nm) of bacteria surviving on pegs ([3]; increasing concentration of 2-CP (0-500 μg/mL) with fixed […] tobramycin, FIG. 2): significantly lower
biofilm eradication in combination with tetracycline ([3]; with tetracycline at […], fatty acid 0-500 μg/mL, FIG. 3): eradicated the biofilm at lower concentrations than C2DA
MEC for 2-CP (alone) ([4]; S. aureus biofilm eradication): >4000
biofilm eradication by the substance alone ([4]; S. aureus, alone): did not eradicate biofilm at any concentration tested
MEC for 2-CP (combined) ([4]; S. aureus, combined with Tetracycline): 125
MEC for 2-CP (combined) ([4]; S. aureus, combined with Tobramycin): 31.25
concentration inhibiting growth (S. aureus (UAMS-1); 2-CP alone): 4 mg/mL
MIC (S. aureus (UAMS-1); Staphylococcus aureus, 24 hr, read-out: MIC for 2-CP (alone)): 4000 µg/mL
MIC for 2-CP (combined) (S. aureus (UAMS-1); combined with Levofloxacin): 500 µg/mL
MIC for 2-CP (combined) (S. aureus (UAMS-1); combined with Tetracycline): 62.5 µg/mL
MIC for 2-CP (combined) (S. aureus (UAMS-1); combined with Tobramycin): 31 µg/mL
ability to disperse biofilm (relative percentage of attached cells) [5]: increased ability to disperse biofilm as compared to T2DA and controls
concentration inhibiting growth ([6]; 2-CP alone): 4 mg/mL
MIC ([6]; Pseudomonas aeruginosa, ATCC27317, 24 hr, read-out: MIC for 2-CP (alone)): 4000 µg/mL
MIC for 2-CP (combined) ([6]; combined with Levofloxacin): 1000 µg/mL
MIC for 2-CP (combined) ([6]; combined with Tetracycline): 1000 µg/mL
MIC for 2-CP (combined) ([6]; combined with Tobramycin): 31 µg/mL
cytocompatibility (percentage of viable cells vs PBS control) ([7]; NIH3T3, 0 to 1000 μg/mL, 24 h, FIG. 4): cytocompatibility equal to C2DA
concentration exhibiting significant cytotoxicity toward mammalian cells ([7]; NIH3T3, 24 h): 1000 µg/mL

CCCCCCC/C=C\C(=O)O [C2DA, cis-2-decenoic acid]
concentration that may inhibit bacterial growth (bacterial growth): 500 µg/mL
concentration capable of inhibiting biofilm formation (biofilm formation): 125 µg/mL

C[C@H]1COc2c(N3CCN(C)CC3)c(F)cc3c(=O)c(C(=O)O)cn1c23 [Levofloxacin]
MEC for antibiotic (alone) ([2]; P. aeruginosa): 0.3 µg/mL
FICI [2]: 0.33
MEC for antibiotic (combined) ([2]; P. aeruginosa): 0.08 µg/mL
MIC for antibiotic (alone) (S. aureus (UAMS-1)): 1 µg/mL
FICI (S. aureus (UAMS-1); antibiotic combined with 2-CP): 0.4
MIC for antibiotic (combined) (S. aureus (UAMS-1)): 0.25 µg/mL
MIC for antibiotic (alone) [6]: 1 µg/mL
FICI [6]: 0.8
MIC for antibiotic (combined) [6]: 0.5 µg/mL

CN(C)[C@@H]1C(O)=C(C(N)=O)C(=O)[C@@]2(O)C(O)=C3C(=O)c4c(O)cccc4[C@@](C)(O)[C@H]3C[C@@H]12 [Tetracycline]
MIC for antibiotic (alone) (S. aureus (UAMS-1)): 1 µg/mL
MIC for antibiotic (combined) (S. aureus (UAMS-1)): 0.5 µg/mL
MIC for antibiotic (alone) [6]: 32 µg/mL
FICI [6]: 0.8
MIC for antibiotic (combined) [6]: 16 µg/mL

NC[C@H]1O[C@H](O[C@H]2[C@H](O)[C@@H](O[C@H]3O[C@H](CO)[C@@H](O)[C@H](N)[C@H]3O)[C@H](N)C[C@@H]2N)[C@H](N)C[C@@H]1O [Tobramycin]
MEC for antibiotic (alone) ([2]; P. aeruginosa): 0.5 µg/mL
Interpretation [2]: Additive
FICI [2]: 0.5625
Interpretation ([2]; listed as tobramycin): additive
MEC for antibiotic (combined) ([2]; P. aeruginosa): 0.25 µg/mL
MEC for antibiotic (alone) ([4]; S. aureus): 2.5 µg/mL
Interpretation ([4]; S. aureus eradication, antibiotic combined with 2-CP): Additive
FICI ([4]; S. aureus eradication, antibiotic combined with 2-CP, 4000 μg/mL used for 2-CP alone): 0.51
Interpretation ([4]; S. aureus eradication, antibiotic combined with 2-CP, listed as tobramycin): additive
MEC for antibiotic (combined) ([4]; S. aureus, combined with 2-CP): 1.25 µg/mL
MIC for antibiotic (alone) (S. aureus (UAMS-1)): 4 µg/mL
FICI (S. aureus (UAMS-1); antibiotic combined with 2-CP): 0.5
Interpretation (S. aureus (UAMS-1); antibiotic combined with 2-CP): synergistic
MIC for antibiotic (combined) (S. aureus (UAMS-1)): 2 µg/mL
MIC for antibiotic (alone) [6]: 0.5 µg/mL
FICI [6]: 0.5
Interpretation [6]: Syner-
Interpretation ([6]; listed as tobramycin): synergistic
MIC for antibiotic (combined) [6]: 0.25 µg/mL
